This passage reports MIC results from patent US4463171A, “Derivatives of macrolide antibiotics” (Sanraku-Ocean Co., Ltd., priority 1982, dated 1984).

In brackets after ≈: the same amount, converted by molar mass. A value given as a limit tells only on which side of the number the result lay.

Holding throughout (test): Antibacterial activity (minimum inhibitory concentration), tube dilution method
What all share (format): cell-based

For assay [1], the system named is Staphylococcus aureus MS9861. The conditions noted are these: Staphylococcus aureus, MS9861; tube dilution method, brain heart infusion broth (pH 7.5); read-out: minimum inhibitory concentration, Staphylococcus aureus MS9861. The method, then: (§1) The antibacterial activities of some typical compounds of this invention were measured by a tube dilution method in a brain heart infusion broth (pH 7.5) as a culture medium.

For assay [2], the system named is Bacillus subtilis NRRL B558. Particulars: Bacillus subtilis, NRRLB558; tube dilution method, brain heart infusion broth (pH 7.5); read-out: minimum inhibitory concentration, Bacillus subtilis NRRL B558. The procedure:
as §1

Assay [3] has as its system Staphylococcus aureus 209P. Particulars: tube dilution method, brain heart infusion broth (pH 7.5), read-out: minimum inhibitory concentration, Staphylococcus aureus 209P. The procedure: as §1
In assay [4] the test system is Klebsiella pneumoniae PCI602. The conditions noted are these: PCI602, tube dilution method, brain heart infusion broth (pH 7.5), read-out: minimum inhibitory concentration, Klebsiella pneumoniae PCI602. The procedure: as §1

In the case of `CCC1OC(=O)CC(O)C(C)C(OC2OC(C)C(OC3CC(C)(O)C(O)C(C)O3)C(N(C)C)C2O)C(CC=O)CC(C)C(=O)C=CC(C)=CC1CBr` (stereo not drawn) [R1=H, R3=H, AR4=Br, 23-Deoxy-23-bromo-YO-9010], the MIC in assay [1] is 0.8 µg/mL (≈ 0.994 µM); in assay [2], less than 0.2 µg/mL; in assay [3], less than 0.2 µg/mL; in assay [4], 6.3 µg/mL (≈ 7.83 µM).
Take `CCC1OC(=O)CC(O)C(C)C(OC2OC(C)C(OC3CC(C)(O)C(O)C(C)O3)C(N(C)C)C2O)C(CC=O)CC(C)C(=O)C=CC(C)=CC1COS(=O)(=O)c1ccc(C)cc1` (stereo not drawn) [R1=H, R3=H, AR4=drawing 79]: the MIC in assay [1] was determined as 6.3 µg/mL (≈ 7.03 µM); in assay [2], 0.4 µg/mL (≈ 0.446 µM); in assay [3] it was 0.8 µg/mL (≈ 0.893 µM); in assay [4], 25 µg/mL (≈ 27.9 µM).
Taken in the same sequence, the figures for `CCC1OC(=O)CC(O)C(C)C(OC2OC(C)C(OC3CC(C)(O)C(OC(=O)CC(C)C)C(C)O3)C(N(C)C)C2O)C(CC=O)CC(C)C(=O)C=CC(C)=CC1COC(C)=O` (stereo not drawn) [R1=H, R3=drawing 75, AR4=OCOCH3, 23-O-Acetyl-4"-O-isovaleryl-YO-9010] were 6.3 µg/mL (≈ 7.26 µM), 1.6 µg/mL (≈ 1.84 µM), 0.8 µg/mL (≈ 0.922 µM) and 3.1 µg/mL (≈ 3.57 µM).
For `CCC1OC(=O)CC(O)C(C)C(OC2OC(C)C(OC3CC(C)(O)C(O)C(C)O3)C(N(C)C)C2O)C(CC=O)CC(C)C(=O)C=CC(C)=CC1COC(C)=O` (stereo not drawn) [R1=H, R3=H, AR4=OCOCH3] the same measures were 1.6 µg/mL (≈ 2.04 µM), 0.4 µg/mL (≈ 0.51 µM), 0.4 µg/mL (≈ 0.51 µM) and 25 µg/mL (≈ 31.9 µM).
For the compound `CCC1OC(=O)CC(O)C(C)C(OC2OC(C)C(OC3CC(C)(O)C(OC(=O)CSc4ccccc4)C(C)O3)C(N(C)C)C2O)C(CC=O)CC(C)C(=O)C=CC(C)=CC1CBr` (stereo not drawn) [R1=H, R3=drawing 69, AR4=Br], the MIC in assay [1] is 3.1 µg/mL (≈ 3.25 µM); in assay [2] it was 1.6 µg/mL (≈ 1.68 µM); in assay [3] it was 0.4 µg/mL (≈ 0.419 µM); in assay [4], greater than 100 µg/mL.
For `CCC1OC(=O)CC(O)C(C)C(OC2OC(C)C(OC3CC(C)(O)C(O)C(C)O3)C(N(C)C)C2O)C(CC=O)CC(C)C(=O)C=CC(C)=CC1COC(=O)CSc1ccncc1` (stereo not drawn) [R1=H, R3=H, AR4=drawing 72] the same measures were 3.1 µg/mL (≈ 3.47 µM), less than 0.2 µg/mL, 0.8 µg/mL (≈ 0.896 µM) and 12.5 µg/mL (≈ 14 µM).
For the compound `CCC1OC(=O)CC(O)C(C)C(OC2OC(C)C(OC3CC(C)(O)C(OC(=O)CSc4ccncc4)C(C)O3)C(N(C)C)C2O)C(CC=O)CC(C)C(=O)C=CC(C)=CC1CBr` (stereo not drawn) [R1=H, R3=drawing 70, AR4=Br], the MIC in assay [1] was 0.8 µg/mL (≈ 0.837 µM); in assay [2] it was less than 0.2 µg/mL; in assay [3], 0.2 µg/mL (≈ 0.209 µM); in assay [4] it was 12.5 µg/mL (≈ 13.1 µM).
For `CCC1OC(=O)CC(O)C(C)C(OC2OC(C)C(OC3CC(C)(O)C(O)C(C)O3)C(N(C)C)C2O)C(CC=O)CC(C)C(=O)C=CC(C)=CC1CSc1nnnn1C` (stereo not drawn) [R1=H, R3=H, AR4=drawing 81] the same measures were 3.1 µg/mL (≈ 3.69 µM), less than 0.2 µg/mL, 0.8 µg/mL (≈ 0.952 µM) and 12.5 µg/mL (≈ 14.9 µM).
For `CCC1OC(=O)CC(O)C(C)C(OC2OC(C)C(OC3CC(C)(O)C(O)C(C)O3)C(N(C)C)C2O)C(CC=O)CC(C)C(=O)C=CC(C)=CC1COC(=O)C(O)c1ccccc1` (stereo not drawn) [R1=H, R3=H, AR4=drawing 73] the same measures were 1.6 µg/mL (≈ 1.83 µM), less than 0.2 µg/mL, 0.4 µg/mL (≈ 0.457 µM) and 12.5 µg/mL (≈ 14.3 µM).
Regarding `CCC1OC(=O)CC(O)C(C)C(OC2OC(C)C(OC3CC(C)(O)C(O)C(C)O3)C(N(C)C)C2O)C(CC=O)CC(C)C(=O)C=CC(C)=CC1COC1CCCCO1` (stereo not drawn) [R1=H, R3=H, AR4=drawing 84], the MIC in assay [1] was 3.1 µg/mL (≈ 3.75 µM); in assay [2], 0.8 µg/mL (≈ 0.968 µM); in assay [3] it was 0.8 µg/mL (≈ 0.968 µM); in assay [4] it was 12.5 µg/mL (≈ 15.1 µM).
Regarding `CCC1OC(=O)CC(O)C(C)C(OC2OC(C)C(OC3CC(C)(O)C(O)C(C)O3)C(N(C)C)C2O)C(CC=O)CC(C)C(=O)C=CC(C)=CC1CI` (stereo not drawn) [R1=H, R3=H, AR4=I, 23-Deoxy-23-iodo-YO-9010], the MIC in assay [1] was 3.1 µg/mL (≈ 3.64 µM); in assay [2], less than 0.2 µg/mL; in assay [3], 0.4 µg/mL (≈ 0.47 µM); in assay [4] it was 6.3 µg/mL (≈ 7.4 µM).
For `CCC1OC(=O)CC(O)C(C)C(OC2OC(C)C(OC3CC(C)(OC(C)=O)C(OC(=O)CC(C)C)C(C)O3)C(N(C)C)C2O)C(CC=O)CC(C)C(=O)C=CC(C)=CC1CO` (stereo not drawn) [(R2)=COCH3, R3=drawing 66, AR4=OH, 3"-O-acetyl-4"-O-isovaleryl-YO-9010], the MIC is 3.1 µg/mL (≈ 3.57 µM) in assay [1], 0.4 µg/mL (≈ 0.461 µM) in assay [2], 0.8 µg/mL (≈ 0.922 µM) in assay [3] and greater than 100 µg/mL in assay [4].
